For orientation: inhibition means how much of the control response was suppressed. Higher therefore signals a response far below the control. What is called Ki is a dissociation constant, usually derived from enzyme kinetics or from competition with a known ligand. High values mean a looser hold on the target, low ones a stronger hold on the target. As usually defined, the EC50 is the concentration that produces a half-maximal response. Read a low EC50 as greater potency. The Kb is the equilibrium dissociation constant of an antagonist, usually derived from a functional assay.

The values that follow come from ChEMBL document CHEMBL1687702, “Discovery of New Human A(2A) Adenosine Receptor Agonists: Design, Synthesis, and Binding Mode of Truncated 2-Hexynyl-4'-thioadenosine” (ACS Med Chem Lett, 2010).

Structures are written as SMILES.

The target in test [1] is T1, Adenosine receptor A1 (Homo sapiens) (UniProt P30542).
T1 sequence (whole entry): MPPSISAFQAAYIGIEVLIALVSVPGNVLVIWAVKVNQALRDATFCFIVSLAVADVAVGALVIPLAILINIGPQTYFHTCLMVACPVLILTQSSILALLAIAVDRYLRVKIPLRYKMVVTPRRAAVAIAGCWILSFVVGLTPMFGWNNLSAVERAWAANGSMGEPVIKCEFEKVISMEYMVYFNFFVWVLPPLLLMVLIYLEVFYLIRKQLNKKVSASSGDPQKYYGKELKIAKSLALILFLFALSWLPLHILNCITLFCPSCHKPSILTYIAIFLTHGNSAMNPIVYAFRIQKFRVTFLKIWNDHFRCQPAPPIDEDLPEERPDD
The experiment in a line: Displacement of [3H]CCPA from human adenosine A1 receptor expressed in CHO cells at 10 uM. It counts as cell-based. (In general: In a radioligand displacement assay an active substance lowers the binding of a labelled ligand.)

The target in test [2] is T2, Adenosine receptor A2a (Homo sapiens, UniProt P29274). Kind of test: Displacement of [3H]CGS21680 from human adenosine A2A receptor in HEK293 cells at 10 uM. It counts as cell-based.
T2 sequence (P29274 whole entry): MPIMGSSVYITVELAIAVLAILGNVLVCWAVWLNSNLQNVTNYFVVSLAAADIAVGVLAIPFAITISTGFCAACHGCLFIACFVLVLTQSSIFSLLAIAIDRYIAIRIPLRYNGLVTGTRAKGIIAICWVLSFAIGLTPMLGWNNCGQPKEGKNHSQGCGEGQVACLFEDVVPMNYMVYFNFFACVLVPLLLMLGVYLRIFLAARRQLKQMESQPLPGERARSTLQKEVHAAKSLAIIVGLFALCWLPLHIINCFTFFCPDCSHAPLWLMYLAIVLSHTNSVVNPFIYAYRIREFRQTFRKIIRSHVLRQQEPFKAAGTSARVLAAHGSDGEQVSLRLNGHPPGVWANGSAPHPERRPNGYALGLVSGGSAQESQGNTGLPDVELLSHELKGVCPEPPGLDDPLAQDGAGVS
Test [3] concerns the target T2, Adenosine receptor A2a. The experiment in a line: Displacement of [3H]CGS21680 from human adenosine A2A receptor in HEK293 cells. The test is classed as cell-based.
In a further test the target is T3, Adenosine receptor A3 (Homo sapiens, UniProt P0DMS8).
T3 sequence (P0DMS8 whole entry): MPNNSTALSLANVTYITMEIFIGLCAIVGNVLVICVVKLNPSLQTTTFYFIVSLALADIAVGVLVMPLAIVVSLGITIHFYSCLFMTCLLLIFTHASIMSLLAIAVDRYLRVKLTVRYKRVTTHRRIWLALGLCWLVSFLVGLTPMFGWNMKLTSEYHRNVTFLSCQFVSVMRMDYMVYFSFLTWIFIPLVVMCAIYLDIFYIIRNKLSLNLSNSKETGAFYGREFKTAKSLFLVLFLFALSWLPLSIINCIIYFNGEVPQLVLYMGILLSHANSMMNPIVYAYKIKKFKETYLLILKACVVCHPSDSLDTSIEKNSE
The experiment in a line: Displacement of [125I]I-AB-MECA from human adenosine A3 receptor expressed in CHO cells […]. It counts as cell-based.

In a further test the target is T4, Adenosine receptor A2b (Homo sapiens, UniProt P29275).
T4 sequence (P29275 whole entry): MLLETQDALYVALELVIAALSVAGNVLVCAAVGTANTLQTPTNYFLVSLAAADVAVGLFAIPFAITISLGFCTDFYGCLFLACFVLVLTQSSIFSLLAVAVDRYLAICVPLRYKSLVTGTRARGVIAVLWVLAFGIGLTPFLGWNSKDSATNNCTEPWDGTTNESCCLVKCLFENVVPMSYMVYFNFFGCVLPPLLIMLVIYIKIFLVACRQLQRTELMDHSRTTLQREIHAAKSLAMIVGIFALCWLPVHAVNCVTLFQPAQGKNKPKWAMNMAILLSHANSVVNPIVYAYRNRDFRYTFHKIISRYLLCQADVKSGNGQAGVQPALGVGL
Kind of test: Agonist activity at human adenosine A2B receptor expressed in CHO cells by cyclic AMP functional assay. The test is classed as cell-based.

Test [4] has as its target T2, Adenosine receptor A2a. The experiment in a line: Agonist activity at human adenosine A2A receptor expressed in CHO cells by cyclic AMP functional assay. It counts as cell-based.
Test [5] addresses T5, Adenosine receptor A3 (Homo sapiens) (UniProt P0DMS8).
T5 sequence (whole entry): T3 sequence (P0DMS8 whole entry)
Kind of test: Antagonistic activity at human adenosine A3 receptor expressed in CHO cells assessed as inhibition of Cl-IB-MECA mediated cyclic AMP production by Schild assay. The test is classed as functional, cell-based.

Consider `CCCC/C=C/c1nc(N)c2ncn([C@@H]3SC[C@@H](O)[C@H]3O)c2n1`, for which the inhibition in test [1] came to 16.2%; at Adenosine receptor A2a [2], 95.9%. For the same compound, the values for the Ki on Adenosine receptor A2a [3] and on Adenosine receptor A3 were 72 nM and 13.2 nM, respectively.
In the case of `CCCCC#Cc1nc2c(N)ncnc2n1[C@@H]1SC[C@@H](O)[C@H]1O`, the results for the inhibition (in test [1]; at Adenosine receptor A2a [2]) were 49.3% and 46.5%, respectively. This compound also showed a Ki at Adenosine receptor A3 of 20 nM.
Regarding `CCCCC#Cc1nc(N)c2ncn([C@@H]3SC[C@@H](O)[C@H]3O)c2n1`, the figures for the EC50 on Adenosine receptor A2b and at Adenosine receptor A2a [4] were 10000 nM and 12 nM, respectively. Also, the values for the inhibition (in test [1]; on Adenosine receptor A2a [2]) were 38.9% and 97.2%, respectively. In test [5], the Kb was determined as 1.69 nM.
In the case of `CCCC/C=C/c1nc2c(N)ncnc2n1[C@@H]1SC[C@@H](O)[C@H]1O`, the inhibition in test [1] was determined as 3.7%; at Adenosine receptor A2a [2], 22.8%. In addition, the affinity at Adenosine receptor A3, expressed as Ki, was 259 nM.
